Active and inactive are the calls of the source.
Experiments:
[1] = tested on: BJ; test: cytotoxicity toward BJ-TERT fibroblasts, dose response, cell-based, RAS-independent, luminescence (AID 1933); format: functional; settings: Homo sapiens
[2] = molecular target: Melanocortin receptor 4 (Homo sapiens, UniProt P32245); format: functional, cell-based;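 also: Cell-based assay with luminescence read-out, confirmatory dose-response testing for agonist activity of biased ligands at MC4R; human U2OS cells with tagged receptor and beta-arrestin; potency of agonists that increase receptor coupling to beta-arrestin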
Melanocortin receptor 4, sequence (P32245 whole entry): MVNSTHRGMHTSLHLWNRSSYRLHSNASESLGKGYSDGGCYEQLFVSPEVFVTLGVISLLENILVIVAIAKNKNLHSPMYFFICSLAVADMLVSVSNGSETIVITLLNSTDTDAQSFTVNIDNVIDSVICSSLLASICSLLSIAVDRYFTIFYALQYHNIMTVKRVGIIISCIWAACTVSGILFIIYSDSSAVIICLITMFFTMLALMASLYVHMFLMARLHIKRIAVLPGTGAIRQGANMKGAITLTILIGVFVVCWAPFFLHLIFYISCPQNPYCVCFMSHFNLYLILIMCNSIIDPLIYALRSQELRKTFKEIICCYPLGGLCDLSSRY

[3] = molecular target: T1, Zinc finger protein mex-5 (Caenorhabditis elegans, UniProt Q9XUB2); test: MEX-5/TCR-2 RNA interaction inhibitors, dose response, biochemical, C. elegans, fluorescence polarization (AID 1960)
T1 sequence (Q9XUB2 whole entry): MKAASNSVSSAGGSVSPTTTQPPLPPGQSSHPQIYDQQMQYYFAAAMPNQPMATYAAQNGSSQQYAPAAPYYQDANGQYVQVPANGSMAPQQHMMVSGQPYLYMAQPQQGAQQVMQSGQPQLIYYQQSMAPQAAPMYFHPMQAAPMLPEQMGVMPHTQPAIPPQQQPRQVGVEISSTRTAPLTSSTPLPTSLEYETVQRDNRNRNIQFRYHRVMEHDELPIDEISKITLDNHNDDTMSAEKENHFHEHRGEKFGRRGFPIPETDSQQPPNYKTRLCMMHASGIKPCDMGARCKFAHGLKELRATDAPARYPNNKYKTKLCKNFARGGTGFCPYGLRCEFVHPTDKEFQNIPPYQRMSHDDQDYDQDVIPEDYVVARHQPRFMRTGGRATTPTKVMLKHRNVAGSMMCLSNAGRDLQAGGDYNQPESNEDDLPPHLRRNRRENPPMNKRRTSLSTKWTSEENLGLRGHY

[4] = molecular target: T2, ORF 73 (Human herpesvirus 8, UniProt O40947); test: inhibitors of C-LANA binding to LBS DNA, dose response, biochemical, fluorescence polarization, cherry-picked samples (AID 504725); design: species or system Human gammaherpesvirus 8;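 also: fluorescence polarization of a labeled DNA duplex reporting LANA DNA binding; potency is for inhibitors that block LANA binding to the DNA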
T2 sequence (O40947 whole entry): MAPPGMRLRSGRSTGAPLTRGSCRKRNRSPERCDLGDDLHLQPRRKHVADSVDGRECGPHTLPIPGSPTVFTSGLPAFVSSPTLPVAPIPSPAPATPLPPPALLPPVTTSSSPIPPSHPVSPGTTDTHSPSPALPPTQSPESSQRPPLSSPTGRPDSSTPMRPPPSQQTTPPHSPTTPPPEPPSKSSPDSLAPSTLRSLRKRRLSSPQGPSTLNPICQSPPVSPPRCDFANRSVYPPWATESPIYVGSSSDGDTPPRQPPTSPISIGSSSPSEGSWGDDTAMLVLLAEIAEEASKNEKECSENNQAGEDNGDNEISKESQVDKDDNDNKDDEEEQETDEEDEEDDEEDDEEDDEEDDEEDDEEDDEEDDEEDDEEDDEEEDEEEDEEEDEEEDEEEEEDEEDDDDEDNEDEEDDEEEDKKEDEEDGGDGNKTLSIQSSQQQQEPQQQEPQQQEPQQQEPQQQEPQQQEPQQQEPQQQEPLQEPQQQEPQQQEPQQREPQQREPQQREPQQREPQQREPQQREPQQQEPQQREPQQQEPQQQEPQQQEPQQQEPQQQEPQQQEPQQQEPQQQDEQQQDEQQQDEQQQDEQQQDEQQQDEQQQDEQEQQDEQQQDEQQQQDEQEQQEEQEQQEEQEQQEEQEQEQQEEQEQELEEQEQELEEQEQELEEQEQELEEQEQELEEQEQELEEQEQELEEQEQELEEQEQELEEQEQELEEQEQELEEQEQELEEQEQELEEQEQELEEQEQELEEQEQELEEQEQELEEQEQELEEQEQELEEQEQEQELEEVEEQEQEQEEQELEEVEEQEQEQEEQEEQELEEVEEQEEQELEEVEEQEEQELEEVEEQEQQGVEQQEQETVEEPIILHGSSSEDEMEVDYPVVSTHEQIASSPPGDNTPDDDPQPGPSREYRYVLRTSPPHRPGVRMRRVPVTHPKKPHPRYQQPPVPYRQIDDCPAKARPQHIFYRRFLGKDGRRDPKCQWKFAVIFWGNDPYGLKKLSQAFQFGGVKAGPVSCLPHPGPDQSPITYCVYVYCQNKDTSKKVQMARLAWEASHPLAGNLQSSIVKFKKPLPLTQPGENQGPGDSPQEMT

[5] = molecular target: DNA (cytosine-5)-methyltransferase 1 (Homo sapiens, UniProt P26358); test: DNMT1 methyltransferase inhibitors, confirmation, biochemical, fluorescent molecular beacon (AID 602386); format: functional
DNA (cytosine-5)-methyltransferase 1, sequence (P26358 whole entry): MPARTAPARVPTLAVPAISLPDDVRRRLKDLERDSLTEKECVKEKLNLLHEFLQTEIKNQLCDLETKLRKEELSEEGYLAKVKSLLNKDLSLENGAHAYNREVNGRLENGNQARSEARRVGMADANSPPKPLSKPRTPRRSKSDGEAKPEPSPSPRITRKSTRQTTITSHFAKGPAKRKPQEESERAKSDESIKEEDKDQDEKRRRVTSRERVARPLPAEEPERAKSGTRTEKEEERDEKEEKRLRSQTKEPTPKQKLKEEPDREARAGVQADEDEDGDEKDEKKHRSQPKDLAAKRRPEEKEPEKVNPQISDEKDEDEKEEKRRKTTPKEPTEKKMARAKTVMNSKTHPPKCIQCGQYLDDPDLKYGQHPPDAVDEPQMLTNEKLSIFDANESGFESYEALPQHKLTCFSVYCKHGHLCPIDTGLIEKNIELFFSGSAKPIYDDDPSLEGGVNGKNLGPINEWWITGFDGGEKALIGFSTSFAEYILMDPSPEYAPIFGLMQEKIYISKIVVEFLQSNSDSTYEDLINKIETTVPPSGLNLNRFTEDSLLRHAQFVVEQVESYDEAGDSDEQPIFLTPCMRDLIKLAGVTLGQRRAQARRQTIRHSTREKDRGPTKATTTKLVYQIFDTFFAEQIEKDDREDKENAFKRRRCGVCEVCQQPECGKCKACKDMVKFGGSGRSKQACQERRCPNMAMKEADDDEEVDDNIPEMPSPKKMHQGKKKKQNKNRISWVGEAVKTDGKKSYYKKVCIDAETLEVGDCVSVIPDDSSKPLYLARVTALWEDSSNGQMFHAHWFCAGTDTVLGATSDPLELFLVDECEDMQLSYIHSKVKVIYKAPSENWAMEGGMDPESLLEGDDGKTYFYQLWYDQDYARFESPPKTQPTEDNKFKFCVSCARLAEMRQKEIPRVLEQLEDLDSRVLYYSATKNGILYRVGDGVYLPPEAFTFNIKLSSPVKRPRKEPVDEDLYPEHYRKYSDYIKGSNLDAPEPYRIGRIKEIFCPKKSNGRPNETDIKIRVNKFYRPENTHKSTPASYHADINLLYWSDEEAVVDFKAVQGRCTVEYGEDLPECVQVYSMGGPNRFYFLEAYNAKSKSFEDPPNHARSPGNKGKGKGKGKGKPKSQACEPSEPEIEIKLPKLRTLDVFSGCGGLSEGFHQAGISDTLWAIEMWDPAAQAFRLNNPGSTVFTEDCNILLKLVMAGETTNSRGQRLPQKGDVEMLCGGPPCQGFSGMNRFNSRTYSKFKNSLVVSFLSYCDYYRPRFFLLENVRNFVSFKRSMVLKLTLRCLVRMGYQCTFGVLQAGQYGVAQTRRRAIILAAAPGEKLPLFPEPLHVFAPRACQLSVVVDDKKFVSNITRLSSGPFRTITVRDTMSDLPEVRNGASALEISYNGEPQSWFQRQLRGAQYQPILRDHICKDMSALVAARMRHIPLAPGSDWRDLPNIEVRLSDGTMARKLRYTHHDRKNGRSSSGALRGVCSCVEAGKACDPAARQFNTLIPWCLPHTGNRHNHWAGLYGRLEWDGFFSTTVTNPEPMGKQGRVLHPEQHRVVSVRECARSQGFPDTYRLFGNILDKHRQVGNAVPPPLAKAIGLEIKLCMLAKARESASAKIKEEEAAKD

[6] = molecular target: Voltage-gated N-type calcium channel alpha-1B subunit/Amyloid beta A4 precursor protein-binding family A member 1 (Homo sapiens, UniProt Q00975+Q02410); format: protein assay
Voltage-gated N-type calcium channel alpha-1B subunit/Amyloid beta A4 precursor protein-binding family A member 1, sequence (Q00975 whole entry): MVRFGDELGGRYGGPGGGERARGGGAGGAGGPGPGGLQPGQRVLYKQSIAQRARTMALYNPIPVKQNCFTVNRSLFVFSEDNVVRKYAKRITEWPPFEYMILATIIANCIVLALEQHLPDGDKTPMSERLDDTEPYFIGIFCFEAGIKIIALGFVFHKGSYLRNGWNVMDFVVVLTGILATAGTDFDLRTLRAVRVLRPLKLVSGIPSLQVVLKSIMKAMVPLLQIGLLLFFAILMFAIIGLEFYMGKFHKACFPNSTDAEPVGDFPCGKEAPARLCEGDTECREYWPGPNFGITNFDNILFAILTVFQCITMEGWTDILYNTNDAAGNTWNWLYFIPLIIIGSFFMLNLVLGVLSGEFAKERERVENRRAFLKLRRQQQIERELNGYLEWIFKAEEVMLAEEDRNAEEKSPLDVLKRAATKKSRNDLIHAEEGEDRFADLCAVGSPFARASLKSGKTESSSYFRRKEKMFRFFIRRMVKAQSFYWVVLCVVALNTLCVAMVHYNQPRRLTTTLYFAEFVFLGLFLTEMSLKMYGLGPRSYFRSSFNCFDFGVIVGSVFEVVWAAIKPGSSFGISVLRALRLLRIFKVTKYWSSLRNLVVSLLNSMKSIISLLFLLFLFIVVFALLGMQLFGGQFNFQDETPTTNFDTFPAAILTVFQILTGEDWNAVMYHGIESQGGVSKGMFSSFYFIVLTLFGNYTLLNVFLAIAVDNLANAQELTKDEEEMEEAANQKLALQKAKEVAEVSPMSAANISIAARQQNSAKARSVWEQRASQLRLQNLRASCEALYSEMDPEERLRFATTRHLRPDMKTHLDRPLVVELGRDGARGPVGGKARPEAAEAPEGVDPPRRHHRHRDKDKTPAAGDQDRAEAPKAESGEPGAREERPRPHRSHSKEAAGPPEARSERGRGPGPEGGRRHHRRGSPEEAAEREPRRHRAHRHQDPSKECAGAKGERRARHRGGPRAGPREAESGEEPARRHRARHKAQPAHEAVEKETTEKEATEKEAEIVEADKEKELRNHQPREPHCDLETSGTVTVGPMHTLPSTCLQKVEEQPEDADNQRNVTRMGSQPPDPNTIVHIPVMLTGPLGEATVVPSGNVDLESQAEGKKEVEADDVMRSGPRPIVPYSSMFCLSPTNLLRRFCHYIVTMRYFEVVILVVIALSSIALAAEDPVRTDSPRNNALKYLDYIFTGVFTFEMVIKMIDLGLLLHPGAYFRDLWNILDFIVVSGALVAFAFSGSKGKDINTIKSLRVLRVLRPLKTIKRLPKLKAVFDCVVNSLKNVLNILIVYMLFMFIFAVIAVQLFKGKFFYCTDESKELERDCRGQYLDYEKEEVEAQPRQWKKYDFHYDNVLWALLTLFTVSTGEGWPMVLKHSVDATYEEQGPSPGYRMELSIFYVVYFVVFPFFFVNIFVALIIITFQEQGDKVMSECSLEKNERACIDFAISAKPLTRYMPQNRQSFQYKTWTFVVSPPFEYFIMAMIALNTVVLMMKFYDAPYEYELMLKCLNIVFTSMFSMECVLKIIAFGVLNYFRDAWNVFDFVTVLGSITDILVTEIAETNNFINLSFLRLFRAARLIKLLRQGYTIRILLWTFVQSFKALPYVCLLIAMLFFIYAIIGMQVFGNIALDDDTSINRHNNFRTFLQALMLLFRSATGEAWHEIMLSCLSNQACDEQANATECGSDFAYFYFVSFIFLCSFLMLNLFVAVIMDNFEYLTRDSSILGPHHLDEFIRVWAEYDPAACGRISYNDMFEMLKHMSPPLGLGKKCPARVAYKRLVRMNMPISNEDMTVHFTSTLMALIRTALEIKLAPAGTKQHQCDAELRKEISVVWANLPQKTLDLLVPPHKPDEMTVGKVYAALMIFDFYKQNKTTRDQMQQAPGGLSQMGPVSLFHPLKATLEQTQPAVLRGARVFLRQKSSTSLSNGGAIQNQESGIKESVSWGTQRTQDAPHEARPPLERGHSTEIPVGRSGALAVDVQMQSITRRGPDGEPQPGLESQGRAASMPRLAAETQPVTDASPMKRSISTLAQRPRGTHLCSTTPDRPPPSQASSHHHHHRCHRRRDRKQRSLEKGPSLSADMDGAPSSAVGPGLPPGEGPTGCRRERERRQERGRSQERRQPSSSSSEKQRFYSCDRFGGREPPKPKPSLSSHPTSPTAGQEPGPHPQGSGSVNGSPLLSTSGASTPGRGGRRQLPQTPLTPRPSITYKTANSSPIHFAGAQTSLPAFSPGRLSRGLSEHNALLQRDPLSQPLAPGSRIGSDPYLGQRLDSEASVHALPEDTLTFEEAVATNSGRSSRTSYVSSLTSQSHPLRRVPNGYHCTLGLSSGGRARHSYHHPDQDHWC
Voltage-gated N-type calcium channel alpha-1B subunit/Amyloid beta A4 precursor protein-binding family A member 1, sequence (Q02410 whole entry): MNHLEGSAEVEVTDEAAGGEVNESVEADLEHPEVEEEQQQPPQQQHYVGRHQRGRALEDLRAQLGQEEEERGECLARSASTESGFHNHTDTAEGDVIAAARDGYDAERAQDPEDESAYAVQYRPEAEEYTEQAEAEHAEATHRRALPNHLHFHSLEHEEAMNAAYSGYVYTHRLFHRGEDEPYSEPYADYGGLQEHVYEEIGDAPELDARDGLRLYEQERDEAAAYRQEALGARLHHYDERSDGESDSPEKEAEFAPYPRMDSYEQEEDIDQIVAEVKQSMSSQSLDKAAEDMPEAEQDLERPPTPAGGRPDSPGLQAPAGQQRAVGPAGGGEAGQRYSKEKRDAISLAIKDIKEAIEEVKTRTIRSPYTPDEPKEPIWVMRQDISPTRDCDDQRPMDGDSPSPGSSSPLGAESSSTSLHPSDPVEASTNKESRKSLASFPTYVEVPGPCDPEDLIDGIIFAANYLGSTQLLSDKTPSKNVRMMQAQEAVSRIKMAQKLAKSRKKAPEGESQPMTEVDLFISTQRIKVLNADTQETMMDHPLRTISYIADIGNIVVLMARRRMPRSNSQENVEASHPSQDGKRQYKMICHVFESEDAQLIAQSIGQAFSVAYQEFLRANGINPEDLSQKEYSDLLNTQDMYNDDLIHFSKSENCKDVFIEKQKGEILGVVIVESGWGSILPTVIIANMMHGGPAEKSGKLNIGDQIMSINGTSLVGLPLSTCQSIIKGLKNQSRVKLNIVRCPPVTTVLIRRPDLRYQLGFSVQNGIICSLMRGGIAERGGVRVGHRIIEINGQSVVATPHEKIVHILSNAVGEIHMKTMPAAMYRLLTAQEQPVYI

[7] = molecular target: T3, Tyrosine-protein phosphatase non-receptor type 7 (Homo sapiens, UniProt P35236); test: HTS HePTP Fluorescent Assay using OMFP substrate for In Vitro dose response studies. [Related pubchem assays (depositor defined):AID1059, AID1077, AID1784, AID2068, AID2085, AID435032, AID521]; format: functional
T3 sequence (P35236 whole entry): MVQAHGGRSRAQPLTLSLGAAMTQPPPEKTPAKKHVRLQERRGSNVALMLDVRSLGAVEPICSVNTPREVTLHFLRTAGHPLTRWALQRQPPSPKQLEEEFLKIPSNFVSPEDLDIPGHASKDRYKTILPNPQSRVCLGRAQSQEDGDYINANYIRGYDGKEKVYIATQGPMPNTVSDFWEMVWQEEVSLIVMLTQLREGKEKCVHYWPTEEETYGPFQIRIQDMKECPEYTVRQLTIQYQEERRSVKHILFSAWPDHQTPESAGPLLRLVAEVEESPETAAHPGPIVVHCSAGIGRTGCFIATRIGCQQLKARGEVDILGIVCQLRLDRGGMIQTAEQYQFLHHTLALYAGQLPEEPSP

[8] = molecular target: T4, Protein Tat (Human immunodeficiency virus type 1 group M subtype B (isolate HXB2)(HIV-1), UniProt P04608); format: functional;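 also: tat binding to TAR RNA read out by fluorescence polarization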
T4 sequence (P04608 whole entry): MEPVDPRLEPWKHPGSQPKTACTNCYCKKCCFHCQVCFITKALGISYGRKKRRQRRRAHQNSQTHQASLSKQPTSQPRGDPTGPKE

CCN1/C(=C/c2ccc3cc(C)ccc3[n+]2CC)Sc2cc(C)c(C)cc21
EC50 [1]: 0.337 µM (inconclusive)
EC50 [2]: > 3.3 µM (active)

Nc1ccc2nc3c(O)nc(S)nc3nc2c1
EC50 [3]: 1.67 µM (inconclusive)
AC50 [4]: 3.62 µM (active)

CSc1ccc(C=NNc2ccc(S(=O)(=O)Nc3ccccc3C(=O)O)cc2[N+](=O)[O-])cc1
IC50 [5]: 3.26 µM (active)

O=C(O)COc1ccc(/C=N/NC(=O)c2ccc(-c3csc(Nc4ccc(Cl)cc4)n3)cc2)cc1
IC50 [6]: 10.1 µM (active)
IC50 [7]: > 99 µM (inactive)

COc1cc(NCCCNC(C)C)c2nccc(C)c2c1
IC50 [8]: > 100 µM (active)
